Reference: patent US6696064B2 (priority 2000, dated 2004)

Columns and labels:
[1] = test system: normal rat brain; settings: in vivo
[2] = cited from earlier work
[3] = test system: healthy volunteers; settings: 300 mg single dose i.v. infusion, eleven healthy volunteers; cited from earlier work

Compound: CCN(CC)CCCC(C)Nc1ccnc2cc(Cl)ccc12 (stereo not drawn) [chloroquine]
- effect of chloroquine on histological brain damage in rats that received DT [1]: did not reduce the histological rain damage
- effect of systemic chloroquine on brain damage caused by Tf-CRM107 [1]: completely blocked the brain damage
- time to maximum blood levels ([2]; after oral administration): 3 to 5 h
- amounts deposited in brain, times smaller than in other body tissues ([2]; in vivo): 7 to 70 times
- effects on the electrocardiogram, mean arterial blood pressure, or pulse rate [3]: no effects were seen
- side effects during i.v. infusion [3]: only of subjective side effects
